Results on one compound are retold here after paper PMC1876254 (Plant Molecular Biology, 2007).

This experiment concerns the target T1, LeMTS1 (Solanum lycopersicum, UniProt Q1XBU5).
T1 sequence (Q1XBU5 44-609): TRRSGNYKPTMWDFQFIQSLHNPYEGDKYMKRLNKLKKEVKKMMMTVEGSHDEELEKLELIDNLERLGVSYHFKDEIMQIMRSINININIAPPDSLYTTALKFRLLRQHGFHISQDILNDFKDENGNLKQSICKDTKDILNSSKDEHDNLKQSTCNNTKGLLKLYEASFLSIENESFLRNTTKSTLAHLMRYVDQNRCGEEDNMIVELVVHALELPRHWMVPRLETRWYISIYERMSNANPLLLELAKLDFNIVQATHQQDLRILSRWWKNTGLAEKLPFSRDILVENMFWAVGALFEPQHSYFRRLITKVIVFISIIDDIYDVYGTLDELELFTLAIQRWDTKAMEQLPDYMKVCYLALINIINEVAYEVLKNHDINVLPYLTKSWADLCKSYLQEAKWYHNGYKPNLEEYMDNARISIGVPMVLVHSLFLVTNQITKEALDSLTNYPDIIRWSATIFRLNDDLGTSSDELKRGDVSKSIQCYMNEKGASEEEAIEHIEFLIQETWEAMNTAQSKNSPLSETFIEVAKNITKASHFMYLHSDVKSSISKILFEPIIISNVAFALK
Put plainly: terpene synthase assay, SPME GC-TOF-MS of products. The format is biochemical. The conditions noted are these: product (E)-nerolidol; 10 uM substrate, 10 mM MgCl2, 2 mM MnCl2, HEPES pH 7.5, 30 C, 1 h.

`CC(C)=CCC/C(C)=C/CC/C(C)=C/COP(=O)(O)OP(=O)(O)O` [FPP]: the “terpene synthase assay, SPME GC-TOF-MS of products” value is “LeMTS1 was also able to utilize the sesquiterpene precursor farnesyl diphosphate (FPP) as substrate”.
